Reference: PubChem BioAssay (NCI)
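Five compound concentrations were applied to cells in 96-well plates for 48 hours; endpoints were derived by simple linear interpolation of the resulting dose-response curve. GI50 is the concentration that inhibits growth by half. TGI: total growth inhibition.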

Assays:
Assay in all cases: growth of human tumour cells (NCI), 48 h
[1] = system: M14 melanoma
[2] = system: UACC-62 melanoma
[3] = system: SR leukemia
[4] = system: HS 578T breast
[5] = system: K-562 leukemia
[6] = system: ACHN renal
[7] = system: OVCAR-5 ovarian
[8] = system: LOX IMVI melanoma
[9] = system: SK-OV-3 ovarian
[10] = system: MDA-MB-231 breast

| Structure (SMILES) | GI50 [1] [µM] | TGI [1] [µM] | GI50 [2] [µM] | TGI [2] [µM] | GI50 [3] [nM] | GI50 [4] [µM] | TGI [4] [µM] | GI50 [5] [nM] | TGI [5] [µM] | GI50 [6] [nM] | TGI [6] [µM] | GI50 [7] [µM] | TGI [7] [µM] | GI50 [8] [µM] | TGI [8] [µM] | GI50 [9] [µM] | TGI [9] [µM] | GI50 [10] [µM] | TGI [10] [µM] | TGI [3] [µM] |
| --- | --- | --- | --- | --- | --- | --- | --- | --- | --- | --- | --- | --- | --- | --- | --- | --- | --- | --- | --- | --- |
| O=C(Cn1c(C(=O)c2ccccc2)nc2ccccc21)c1ccc(F)cc1 | 3.67 | > 100 | 11.7 | > 100 | 1210 | 11.5 | > 100 | 2860 | > 100 | > 59700 | > 100 | > 100 | > 100 | 7.26 | > 100 | 32.7 | > 100 | 15.7 | > 100 | – |
| CC(=O)NC(CCCCN(Cc1ccccc1)C(=O)N(CCCl)N=O)C(=O)NCc1ccccc1 (centres undefined) | – | > 71.5 | – | 36.5 | – | – | 49.7 | – | > 89.4 | – | 41 | – | > 87.3 | – | > 58.1 | – | > 76.3 | – | 47.9 | 47.6 |
| Cc1cn2c(/C=C3/C(=O)Nc4ccc(F)cc43)c(C)nc2s1 | 2.68 | 17 | 3.85 | 48.3 | 1670 | 7.98 | 28.2 | 1720 | > 50 | 17200 | > 50 | 14.6 | > 50 | 10.3 | > 50 | 10.6 | > 50 | 12.1 | > 50 | 5.14 |
| O=C(Nc1nc(-c2ccc(Cl)cc2)nc2c1sc(=S)n2-c1ccccc1)C(F)(F)F | 7.61 | > 100 | 3.55 | 15 | 4760 | 3.37 | 9.7 | 6370 | > 100 | 1810 | 3.56 | 6.23 | 26.6 | 2.43 | 6.46 | 2.71 | 8.1 | 3.64 | 12.5 | 20.1 |
| C=C1C(=O)OC2CC3(C)CCCC(C)C3=CC12 (centres undefined) | – | 16.1 | – | 16.2 | – | – | 36.6 | – | 6.61 | – | 10.4 | – | 23.4 | – | 4.42 | – | 56.1 | – | 26.9 | 7.04 |
| CC(C)CCC(=O)[C@@H](C)[C@H]1[C@@H](OC2OCC(O)C(O)C2NS(C)(=O)=O)C[C@H]2[C@@H]3CC=C4C[C@@H](O)CC[C@]4(C)[C@H]3CC[C@]12C (some centres undefined) | 0.512 | 1.58 | 0.79 | 1.95 | 1030 | 0.423 | 3.41 | 1370 | 5.55 | 2150 | 11.6 | 4.89 | 16.8 | 1.19 | 5.22 | 1.27 | 5.04 | 2 | 8.65 | 8.39 |
| CC1=NN(C(=O)c2ccncc2)C(=O)C1N=Nc1ccc2ccccc2c1 (centres undefined) | – | > 96.2 | – | > 100 | – | – | > 100 | – | > 70.7 | – | > 100 | – | > 100 | – | > 100 | – | > 100 | – | > 100 | > 31.7 |
| CC(C)(C)c1ccc(O)c(CN(Cc2cc(C(C)(C)C)ccc2O)C2CCCCC2)c1 | – | 28.4 | – | 31.4 | – | – | 45.3 | – | 27.9 | – | 37.4 | – | 34.1 | – | 24.1 | – | 47.8 | – | 30.4 | 31.4 |
